In US10597388B2, “Pyridazinone herbicides” (FMC CORPORATION, priority 2014, dated 2020):

What was measured:
Test in all cases: Test C greenhouse herbicide test, pre- and postemergence
Format in all cases: in vivo
[1] = tested on: barnyardgrass (Echinochloa crus-galli)
Summary of the method: (§1)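 Pre- and postemergence greenhouse screen; values are visual control ratings, 0 meaning no effect and 100 complete kill, assigned relative to untreated plants after 13 to 15 d.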

[2] = tested on: blackgrass (Alopecurus myosuroides)
Summary of the method: as §1

[3] = tested on: corn (Zea mays)
Summary of the method: as §1

[4] = tested on: crabgrass, large (large crabgrass, Digitaria sanguinalis)
Summary of the method: as §1

[5] = tested on: foxtail, giant (giant foxtail, Setaria faberii)
Summary of the method: as §1

[6] = tested on: galium (catchweed bedstraw, Galium aparine)
Summary of the method: as §1

[7] = tested on: lambsquarters (Chenopodium album)
Summary of the method: as §1

[8] = tested on: morningglory (Ipomoea coccinea)
Summary of the method: as §1

[9] = tested on: nutsedge, yellow (yellow nutsedge, Cyperus esculentus)
Summary of the method: as §1

[10] = tested on: oilseed rape (Brassica napus)
Summary of the method: as §1

[11] = tested on: ragweed (common ragweed, Ambrosia elatior)
Summary of the method: as §1

[12] = tested on: ryegrass, Italian (Italian ryegrass, Lolium multiflorum)
Summary of the method: as §1

[13] = tested on: soybean (Glycine max)
Summary of the method: as §1

[14] = tested on: velvetleaf (Abutilon theophrasti)
Summary of the method: as §1

[15] = tested on: waterhemp (common waterhemp, Amaranthus rudis)
Summary of the method: as §1

[16] = Postemergence, 31 g ai/ha, scale 0 to 100 (0 no effect, 100 complete control)
[17] = Postemergence, 125 g ai/ha, scale 0 to 100, 0 is no effect, 100 is complete control
[18] = Postemergence, 250 g ai/ha, scale 0 to 100, 0 no effect, 100 complete control, 13 to 15 d
[19] = Preemergence, 31 g ai/ha, scale 0 to 100, 0 is no effect, 100 is complete control
[20] = Preemergence, 62 g ai/ha, scale 0 to 100, 0 is no effect, 100 is complete control
[21] = Preemergence, 125 g ai/ha, scale 0 to 100, 0 is no effect, 100 is complete control
[22] = Preemergence, 250 g ai/ha, scale 0 to 100, 0 no effect, 100 complete control
[23] = postemergence, 62 g ai/ha, scale 0 to 100, 0 no effect, 100 complete control

## CCCC(=O)Oc1c(C)nn(C)c(=O)c1-c1c(C)sc2ccc(C)cc12 [Compound 105]
[1]; [16]
  Plant response rating, Barnyardgrass: 10
[1]; [17]
  Plant response rating, Barnyardgrass: 25
[1]; [18]
  Plant response rating, Barnyardgrass: 20
[1]; [19]
  Plant response rating, Barnyardgrass: 0
[1]; [20]
  Plant response rating, Barnyardgrass: 30
[1]; [21]
  Plant response rating, Barnyardgrass: 60
[1]; [22]
  Barnyardgrass plant response rating: 90
[1]; [23]
  Barnyardgrass plant response rating: 25
[2]; [16]
  Plant response rating, Blackgrass: 15
[2]; [17]
  Plant response rating, Blackgrass: 50
[2]; [18]
  Plant response rating, Blackgrass: 60
[2]; [19]
  Plant response rating, Blackgrass: 20
[2]; [20]
  Plant response rating, Blackgrass: 50
[2]; [21]
  Plant response rating, Blackgrass: 55
[2]; [22]
  Blackgrass plant response rating: 90
[2]; [23]
  Blackgrass plant response rating: 40
[3]; [16]
  Plant response rating, Corn: 10
[3]; [17]
  Plant response rating, Corn: 30
[3]; [18]
  Plant response rating, Corn: 30
[3]; [19]
  Plant response rating, Corn: 0
[3]; [20]
  Plant response rating, Corn: 0
[3]; [21]
  Plant response rating, Corn: 5
[3]; [22]
  Corn plant response rating: 25
[3]; [23]
  Corn plant response rating: 15
[4]; [16]
  Plant response rating, Crabgrass, Large: 20
[4]; [17]
  Plant response rating, Crabgrass, Large: 20
[4]; [18]
  Plant response rating, Crabgrass, Large: 30
[4]; [19]
  Plant response rating, Crabgrass, Large: 20
[4]; [20]
  Plant response rating, Crabgrass, Large: 50
[4]; [21]
  Plant response rating, Crabgrass, Large: 75
[4]; [22]
  Crabgrass, Large plant response rating: 80
[4]; [23]
  Crabgrass, Large plant response rating: 30
[5]; [16]
  Plant response rating, Foxtail, Giant: 40
[5]; [17]
  Plant response rating, Foxtail, Giant: 75
[5]; [18]
  Plant response rating, Foxtail, Giant: 85
[5]; [19]
  Plant response rating, Foxtail, Giant: 60
[5]; [20]
  Plant response rating, Foxtail, Giant: 80
[5]; [21]
  Plant response rating, Foxtail, Giant: 90
[5]; [22]
  Foxtail, Giant plant response rating: 100
[6]; [16]
  Plant response rating, Galium: 95
[6]; [17]
  Plant response rating, Galium: 95
[6]; [18]
  Plant response rating, Galium: 100
[6]; [19]
  Plant response rating, Galium: 85
[6]; [20]
  Plant response rating, Galium: 90
[6]; [21]
  Plant response rating, Galium: 95
[6]; [22]
  Galium plant response rating: 98
[7]; [16]
  Plant response rating, Lambsquarters: 85
[7]; [17]
  Plant response rating, Lambsquarters: 100
[7]; [18]
  Plant response rating, Lambsquarters: 100
[7]; [19]
  Plant response rating, Lambsquarters: 95
[7]; [20]
  Plant response rating, Lambsquarters: 85
[7]; [21]
  Plant response rating, Lambsquarters: 90
[7]; [22]
  Lambsquarters plant response rating: 95
[8]; [16]
  Plant response rating, Morningglory: 100
[8]; [17]
  Plant response rating, Morningglory: 100
[8]; [18]
  Plant response rating, Morningglory: 100
[8]; [19]
  Plant response rating, Morningglory: 85
[8]; [20]
  Plant response rating, Morningglory: 90
[8]; [21]
  Plant response rating, Morningglory: 100
[8]; [22]
  Morningglory plant response rating: 95
[9]; [16]
  Plant response rating, Nutsedge, Yellow: 55
[9]; [17]
  Plant response rating, Nutsedge, Yellow: 75
[9]; [18]
  Plant response rating, Nutsedge, Yellow: 90
[9]; [19]
  Plant response rating, Nutsedge, Yellow: 40
[9]; [20]
  Plant response rating, Nutsedge, Yellow: 45
[9]; [21]
  Plant response rating, Nutsedge, Yellow: 40
[9]; [22]
  Nutsedge, Yellow plant response rating: 85
[10]; [16]
  Plant response rating, Oilseed Rape: 5
[10]; [17]
  Plant response rating, Oilseed Rape: 60
[10]; [18]
  Plant response rating, Oilseed Rape: 75
[10]; [19]
  Plant response rating, Oilseed Rape: 0
[10]; [20]
  Plant response rating, Oilseed Rape: 5
[10]; [21]
  Plant response rating, Oilseed Rape: 10
[10]; [22]
  Oilseed Rape plant response rating: 10
[11]; [16]
  Plant response rating, Ragweed: 90
[11]; [17]
  Plant response rating, Ragweed: 98
[11]; [18]
  Plant response rating, Ragweed: 100
[11]; [19]
  Plant response rating, Ragweed: 90
[11]; [20]
  Plant response rating, Ragweed: 90
[11]; [21]
  Plant response rating, Ragweed: 98
[11]; [22]
  Ragweed plant response rating: 100
[12]; [16]
  Plant response rating, Ryegrass, Italian: 85
[12]; [17]
  Plant response rating, Ryegrass, Italian: 90
[12]; [18]
  Plant response rating, Ryegrass, Italian: 80
[12]; [19]
  Plant response rating, Ryegrass, Italian: 40
[12]; [20]
  Plant response rating, Ryegrass, Italian: 90
[12]; [21]
  Plant response rating, Ryegrass, Italian: 90
[12]; [22]
  Ryegrass, Italian plant response rating: 95
[13]; [16]
  Plant response rating, Soybean: 5
[13]; [17]
  Plant response rating, Soybean: 10
[13]; [18]
  Plant response rating, Soybean: 40
[13]; [19]
  Plant response rating, Soybean: 0
[13]; [20]
  Plant response rating, Soybean: 0
[13]; [21]
  Plant response rating, Soybean: 0
[13]; [22]
  Soybean plant response rating: 0
[14]; [16]
  Plant response rating, Velvetleaf: 75
[14]; [17]
  Plant response rating, Velvetleaf: 90
[14]; [18]
  Plant response rating, Velvetleaf: 100
[14]; [19]
  Plant response rating, Velvetleaf: 60
[14]; [20]
  Plant response rating, Velvetleaf: 85
[14]; [21]
  Plant response rating, Velvetleaf: 90
[14]; [22]
  Velvetleaf plant response rating: 95
[15]; [16]
  Plant response rating, Waterhemp: 80
[15]; [17]
  Plant response rating, Waterhemp: 100
[15]; [18]
  Plant response rating, Waterhemp: 98
[15]; [19]
  Plant response rating, Waterhemp: 90
[15]; [20]
  Plant response rating, Waterhemp: 95
[15]; [21]
  Plant response rating, Waterhemp: 100
[15]; [22]
  Waterhemp plant response rating: 100
